The test system of data set [1] is MV4-11, THP-1, HL60 and Kasumi-1 cells. Kind of data set: Cell viability assay, four AML cell lines together. The data set is classed as cell-based. As to conditions: 72 h; read-out: IC50 values against four AML cell lines (range). As for the experimental part:
The AML cell lines MV4-11, THP-1, KASUMI-1 and HL-60 were purchased from Procell Life Science & Technology Co., Ltd. (Wuhan, China). THP-1 and KASUMI-1 were cultured in RPMI-1640 complete medium containing 10% fetal bovine serum and 1% penicillin and streptomycin. MV4-11 was cultured in IMDM complete medium containing 10% fetal bovine serum and 1% penicillin and streptomycin. HL-60 was cultured in IMDM complete medium containing 20% fetal bovine serum and 1% penicillin and streptomycin. All cell lines were cultured in an incubator with humidity set at 95%, temperature at 37 °C and 5% CO2.
MV4-11, THP-1, KASUMI-1 and HL-60 cells were plated in 96-well transparent plates (10,000 to 15,000 cells/100 μL) and after incubation overnight, cells were treated with gradient-diluted inhibitors with several concentrations. After the cells were incubated with inhibitors for 72 h, 1 mg/mL of Resazurin (Sigma-Aldrich, Saint Louis, MO, USA) was added (working concentration was 0.1 mg/mL). After incubation at 37 °C for about 3 h, the fluorescence intensity of […] was measured at 560 nm/590 nm (excitation/emission) with a Spectra Max i3 Microplate Reader, and the cell viability was determined. The IC50 curve was drawn using GraphPad Prism 9.5 software.

The next data set addresses T1, HDAC7 (Homo sapiens, UniProt Q8WUI4).
T1 construct: purchased BPS Bioscience
T1 sequence (Q8WUI4 1-952): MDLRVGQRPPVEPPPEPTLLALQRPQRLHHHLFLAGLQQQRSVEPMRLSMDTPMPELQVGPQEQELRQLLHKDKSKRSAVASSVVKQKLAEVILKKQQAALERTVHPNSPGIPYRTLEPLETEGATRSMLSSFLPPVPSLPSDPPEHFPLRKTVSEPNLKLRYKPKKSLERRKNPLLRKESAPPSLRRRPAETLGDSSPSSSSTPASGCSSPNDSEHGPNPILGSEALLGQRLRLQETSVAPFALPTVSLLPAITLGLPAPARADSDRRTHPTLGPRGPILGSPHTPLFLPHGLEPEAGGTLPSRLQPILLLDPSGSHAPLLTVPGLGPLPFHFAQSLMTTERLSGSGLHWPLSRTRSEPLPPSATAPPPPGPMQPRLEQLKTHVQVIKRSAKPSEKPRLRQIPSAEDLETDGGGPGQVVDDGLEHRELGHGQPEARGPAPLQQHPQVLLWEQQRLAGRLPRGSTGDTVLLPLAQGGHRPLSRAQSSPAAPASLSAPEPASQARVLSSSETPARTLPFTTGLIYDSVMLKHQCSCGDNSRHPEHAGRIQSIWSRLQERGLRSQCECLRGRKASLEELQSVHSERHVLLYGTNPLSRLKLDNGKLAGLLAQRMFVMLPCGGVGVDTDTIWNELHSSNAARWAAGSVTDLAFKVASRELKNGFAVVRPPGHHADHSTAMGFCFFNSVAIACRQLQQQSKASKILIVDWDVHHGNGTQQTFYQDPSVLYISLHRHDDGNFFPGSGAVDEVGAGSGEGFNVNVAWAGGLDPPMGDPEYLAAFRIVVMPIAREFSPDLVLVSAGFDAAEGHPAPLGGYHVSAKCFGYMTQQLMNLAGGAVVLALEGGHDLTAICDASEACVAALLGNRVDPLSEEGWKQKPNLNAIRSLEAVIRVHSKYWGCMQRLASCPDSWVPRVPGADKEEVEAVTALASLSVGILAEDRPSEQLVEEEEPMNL
The experiment in a line: In vitro HDAC inhibition fluorescence assay, HDAC7. It is filed as biochemical. Here is the method:
(§1) All of the HDAC enzymes were purchased from BPS Bioscience. In vitro HDAC inhibition assays were conducted as previously described. In brief, 20 μL of recombinant HDAC enzyme solution (HDAC1-9, 11) was mixed with various concentrations of the tested compound (20 μL). The mixture was incubated at 37 °C for 1 h, and then, 10 μL of fluorogenic substrate (Boc-Lys (acetyl)-AMC for HDAC1, 2, 3 and 6; Boc-Lys (trifluoroacetyl)AMC for HDAC4, 5, 7, 8, 9 and 11) was added to achieve a final concentration of 50 μM. After incubation at 37 °C for 2 h, the catalysis was stopped by the addition of 10 μL of developer containing 30 mg/mL trypsin and 6 μM trichostatin A (TSA). Then, 30 min later, the fluorescence intensity was measured using a microplate reader at excitation and emission wavelengths of 360 and 460 nm, respectively. The inhibition ratios were calculated from the fluorescence intensity readings of tested wells relative to those of control wells, and the IC50 curves and values were determined by GraphPad Prism 6.0, using the “log(inhibitor) vs. normalized response-variable slope” function.

The target in another data set is T2, HDAC1 (Homo sapiens, UniProt Q13547).
T2 construct: purchased BPS Bioscience
T2 sequence (Q13547 whole entry): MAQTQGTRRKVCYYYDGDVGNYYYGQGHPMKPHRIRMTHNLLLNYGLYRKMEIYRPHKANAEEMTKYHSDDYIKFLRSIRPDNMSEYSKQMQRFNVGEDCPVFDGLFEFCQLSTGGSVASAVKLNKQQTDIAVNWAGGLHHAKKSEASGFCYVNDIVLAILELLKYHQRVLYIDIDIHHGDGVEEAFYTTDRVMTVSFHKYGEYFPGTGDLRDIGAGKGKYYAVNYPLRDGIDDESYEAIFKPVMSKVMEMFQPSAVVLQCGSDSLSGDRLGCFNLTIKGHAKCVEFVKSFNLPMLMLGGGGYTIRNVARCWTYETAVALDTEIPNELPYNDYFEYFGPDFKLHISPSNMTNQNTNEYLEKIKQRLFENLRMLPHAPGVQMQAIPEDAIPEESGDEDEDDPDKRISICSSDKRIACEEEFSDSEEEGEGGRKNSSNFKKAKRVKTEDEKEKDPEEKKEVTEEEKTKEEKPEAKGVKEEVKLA
The experiment in a line: In vitro HDAC inhibition fluorescence assay, HDAC1. It is filed as biochemical. As for the experimental part: (§2) All of the HDAC enzymes were purchased from BPS Bioscience. In vitro HDAC inhibition assays were conducted as previously described. In brief, 20 μL of recombinant HDAC enzyme solution (HDAC1-9, 11) was mixed with various concentrations of the tested compound (20 μL). […] After incubation at 37 °C for 2 h, the catalysis was stopped by the addition of 10 μL of developer containing 30 mg/mL trypsin and 6 μM trichostatin A (TSA). Then, 30 min later, the fluorescence intensity was measured using a microplate reader at excitation and emission wavelengths of 360 and 460 nm, respectively. The inhibition ratios were calculated from the fluorescence intensity readings of tested wells relative to those of control wells, and the IC50 curves and values were determined by GraphPad Prism 6.0, using the “log(inhibitor) vs. normalized response-variable slope” function.

Data set [2] is described as follows: In vitro stability in artificial gastric juice. It is filed as in vitro ADME. As to conditions: 37 °C, within 24 h. Here is the method: Equal samples were collected, and 600 μL acetonitrile was added to quench enzyme reactions. The reaction mixture was swirled for 30 s and then centrifuged at 15,000 rpm at 4 °C for 15 min. The supernatant of each sample was analyzed directly by HPLC (1260 Infinity II, Agilent Technologies, Waldbronn, Germany).

The next data set addresses T3, HDAC9 (Homo sapiens, UniProt Q9UKV0).
T3 construct: purchased BPS Bioscience
The experiment in a line: In vitro HDAC inhibition fluorescence assay, HDAC9. It is filed as biochemical. Here is the method: as §1

A further data set deals with T4, HDAC3 (Homo sapiens, UniProt O15379).
T4 construct: purchased BPS Bioscience
T4 sequence (O15379 whole entry): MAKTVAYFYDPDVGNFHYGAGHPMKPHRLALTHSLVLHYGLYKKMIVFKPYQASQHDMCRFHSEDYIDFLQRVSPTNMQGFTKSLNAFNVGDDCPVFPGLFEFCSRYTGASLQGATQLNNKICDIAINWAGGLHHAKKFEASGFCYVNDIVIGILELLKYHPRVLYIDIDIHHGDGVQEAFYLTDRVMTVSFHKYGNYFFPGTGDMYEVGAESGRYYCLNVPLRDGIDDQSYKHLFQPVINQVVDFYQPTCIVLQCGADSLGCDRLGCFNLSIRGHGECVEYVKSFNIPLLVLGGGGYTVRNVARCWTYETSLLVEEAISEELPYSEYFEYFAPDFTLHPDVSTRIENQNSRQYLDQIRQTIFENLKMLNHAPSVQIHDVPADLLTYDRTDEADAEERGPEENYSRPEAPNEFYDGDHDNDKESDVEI
T4 sequence (Q9Y618 395-489 partner limits assumed): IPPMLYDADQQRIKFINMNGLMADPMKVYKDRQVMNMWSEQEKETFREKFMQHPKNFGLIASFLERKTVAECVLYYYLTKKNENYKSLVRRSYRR
Kind of data set: In vitro HDAC inhibition fluorescence assay, HDAC3. It is filed as biochemical. Here is the method:
as §2

Where “and” joins values, the source holds several entries; their conditions need not be identical. Equal values may be shown once.

T3 sequence (Q9UKV0 whole entry): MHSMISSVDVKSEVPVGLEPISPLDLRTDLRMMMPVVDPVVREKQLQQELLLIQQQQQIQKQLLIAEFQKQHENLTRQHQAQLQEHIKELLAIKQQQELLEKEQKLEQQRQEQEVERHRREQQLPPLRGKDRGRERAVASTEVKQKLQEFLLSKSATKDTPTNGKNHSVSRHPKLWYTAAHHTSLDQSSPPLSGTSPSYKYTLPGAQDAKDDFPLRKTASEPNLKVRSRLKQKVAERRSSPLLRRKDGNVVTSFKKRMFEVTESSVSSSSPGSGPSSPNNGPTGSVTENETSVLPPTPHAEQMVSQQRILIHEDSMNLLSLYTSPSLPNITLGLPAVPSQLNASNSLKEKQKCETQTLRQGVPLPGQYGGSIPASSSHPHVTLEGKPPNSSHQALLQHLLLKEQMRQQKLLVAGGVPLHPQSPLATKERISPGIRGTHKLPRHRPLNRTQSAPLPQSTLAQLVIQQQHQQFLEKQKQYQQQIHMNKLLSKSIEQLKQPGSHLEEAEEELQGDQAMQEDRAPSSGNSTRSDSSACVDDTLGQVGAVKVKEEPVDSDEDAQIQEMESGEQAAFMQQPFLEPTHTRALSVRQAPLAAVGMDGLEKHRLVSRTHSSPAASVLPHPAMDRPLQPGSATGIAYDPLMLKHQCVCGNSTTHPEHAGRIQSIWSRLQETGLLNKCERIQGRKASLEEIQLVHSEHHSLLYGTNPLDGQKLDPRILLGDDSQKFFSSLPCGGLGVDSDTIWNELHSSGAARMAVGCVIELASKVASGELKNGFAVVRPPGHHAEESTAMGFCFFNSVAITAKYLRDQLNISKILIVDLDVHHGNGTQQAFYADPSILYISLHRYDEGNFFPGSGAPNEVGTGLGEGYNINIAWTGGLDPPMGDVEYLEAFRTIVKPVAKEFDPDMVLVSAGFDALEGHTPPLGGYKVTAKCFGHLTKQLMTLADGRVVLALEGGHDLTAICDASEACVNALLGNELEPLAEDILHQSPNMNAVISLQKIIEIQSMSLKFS

The IC50 is the point on the concentration scale where inhibition reaches its midpoint. The inhibition is the share of the control response that was lost under treatment. As for `CCCNNC(=O)C=Cc1ccc(CNCCc2ccccc2)cc1` [Compound 25c, 3-(4-((Phenethylamino)methyl)phenyl)-N′-propylacrylohydrazide], the IC50 is 338 to 480 nM in data set [1]; more than 10000 nM against HDAC7; 28.1 nM and 28 nM against HDAC1; more than 10000 nM on HDAC9; 2.4 nM and 2.39 nM and 2.3 nM at HDAC3. Moreover, the “Inhibition Rate of HDAC1 (%)” value on HDAC1 (10 nM, 0.01 µM) turned out to be 31.1 ± 2.1%. Besides, the inhibition at 0.01 µM at HDAC1 (10 nM, read-out: Inhibition Rate of HDAC1 (%)) was 31.1 ± 2.09%; on HDAC3 (10 nM, read-out: Inhibition Rate of HDAC3 (%)) it was more than 95%. Moreover, the inhibition at 0.1 µM on HDAC1 (100 nM, read-out: Inhibition Rate of HDAC1 (%)) was determined as 83.6 ± 0.4%; on HDAC3 (100 nM, read-out: Inhibition Rate of HDAC3 (%)) it was 95.1 ± 0.1%. Also, the “stability in artificial gastric juice” value in data set [2] is listed as “relatively stable”.

The values above are taken from publication PMC11204923, “Marine Cytotoxin Santacruzamate A Derivatives as Potent HDAC1-3 Inhibitors and Their Synergistic Anti-Leukemia Effects with Venetoclax” (Marine Drugs, 2024).
